Earlier results, collected in publication PMC8477420 (ChemMedChem, 2020).

Experiments:
OCI-AML-3 cells = details: monotherapy
MOLM-13 cells = details: monotherapy
OCI-AML-2 cells = details: monotherapy

| Structure (SMILES) | viability (OCI-AML-3 cells) | viability (MOLM-13 cells) | viability (OCI-AML-2 cells) | inhibition of Bcl-2 (Bcl-2) |
| --- | --- | --- | --- | --- |
| Cc1c(-c2c(-c3ccc(F)o3)sc3ncnc(O[C@H](Cc4ccccc4OCc4ccnn4CC(F)(F)F)C(=O)O)c23)ccc(OCCN2CCN(C)CC2)c1Cl [Compound S63845] | 60–70% | 60–70% | 95% | – |
| COc1ncc(-c2nc3c(n2C(C)C)[C@H](c2ccc(Cl)cc2)N(c2cc(Cl)cn(C)c2=O)C3=O)c(OC)n1 [HDM201] | no reduction | 80% | 80% | – |
| COc1ccc(C2=N[C@@H](c3ccc(Cl)cc3)[C@@H](c3ccc(Cl)cc3)N2C(=O)N2CCNC(=O)C2)c(OC(C)C)c1 [Nutlin-3a] | – | – | – | low micromolar inhibition |
